Where two headings read alike, the source gives them in different places.
Assays:
[1] = biological target: GABAB1A (Homo sapiens, UniProt Q9UBS5); assay: LeadProfilingScreen radioligand binding
[2] = biological target: Interleukin IL-1 R1 (Homo sapiens, UniProt P14778); assay: LeadProfilingScreen radioligand binding
[3] = biological target: Adrenergic β2 (Homo sapiens, UniProt P07550); assay: LeadProfilingScreen radioligand binding
[4] = biological target: T1, mouse SLO3 (KSper currents in mouse sperm) (Mus musculus, UniProt O54982); assay: Whole-cell recording of KSper currents in mouse sperm; format: cell-based; conditions: for Hill coefficient: mouse sperm KSper currents; for IC50: whole-cell recordings from mouse sperm
T1 construct: sperm were isolated from the corpus epididymis by swim-out; endogenous in cells; host or cells: C57Bl/6 mouse corpus epididymal sperm
T1 sequence (O54982 1-1121): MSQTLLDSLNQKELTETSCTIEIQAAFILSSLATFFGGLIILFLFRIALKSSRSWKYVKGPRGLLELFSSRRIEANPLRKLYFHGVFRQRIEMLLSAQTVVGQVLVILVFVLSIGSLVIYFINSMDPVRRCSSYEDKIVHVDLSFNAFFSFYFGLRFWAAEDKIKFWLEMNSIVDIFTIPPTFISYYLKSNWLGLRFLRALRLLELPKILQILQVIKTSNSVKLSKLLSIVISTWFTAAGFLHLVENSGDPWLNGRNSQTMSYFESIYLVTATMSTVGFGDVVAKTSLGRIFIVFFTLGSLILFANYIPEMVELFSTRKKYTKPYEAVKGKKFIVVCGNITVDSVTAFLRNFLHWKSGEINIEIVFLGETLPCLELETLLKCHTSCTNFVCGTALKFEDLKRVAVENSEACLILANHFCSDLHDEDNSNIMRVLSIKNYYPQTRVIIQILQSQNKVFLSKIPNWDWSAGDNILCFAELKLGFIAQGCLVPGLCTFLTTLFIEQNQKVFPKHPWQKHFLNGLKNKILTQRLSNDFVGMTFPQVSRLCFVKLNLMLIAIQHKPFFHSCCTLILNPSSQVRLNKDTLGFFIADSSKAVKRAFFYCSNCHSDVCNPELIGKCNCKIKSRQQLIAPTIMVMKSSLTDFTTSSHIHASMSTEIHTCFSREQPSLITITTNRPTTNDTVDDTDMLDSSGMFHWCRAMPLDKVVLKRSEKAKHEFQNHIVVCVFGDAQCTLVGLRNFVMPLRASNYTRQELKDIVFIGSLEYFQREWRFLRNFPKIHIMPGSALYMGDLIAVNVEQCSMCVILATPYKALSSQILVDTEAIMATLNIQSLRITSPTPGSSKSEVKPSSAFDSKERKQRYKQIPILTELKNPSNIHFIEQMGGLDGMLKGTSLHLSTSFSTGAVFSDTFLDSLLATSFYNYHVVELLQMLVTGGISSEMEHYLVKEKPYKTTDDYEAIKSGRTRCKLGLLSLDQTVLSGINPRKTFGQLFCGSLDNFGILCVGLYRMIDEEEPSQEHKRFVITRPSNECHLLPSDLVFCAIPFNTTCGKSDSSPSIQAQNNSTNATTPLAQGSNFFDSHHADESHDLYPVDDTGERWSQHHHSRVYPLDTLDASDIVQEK
T1 sequence (Q5M8M9 24-314 partner): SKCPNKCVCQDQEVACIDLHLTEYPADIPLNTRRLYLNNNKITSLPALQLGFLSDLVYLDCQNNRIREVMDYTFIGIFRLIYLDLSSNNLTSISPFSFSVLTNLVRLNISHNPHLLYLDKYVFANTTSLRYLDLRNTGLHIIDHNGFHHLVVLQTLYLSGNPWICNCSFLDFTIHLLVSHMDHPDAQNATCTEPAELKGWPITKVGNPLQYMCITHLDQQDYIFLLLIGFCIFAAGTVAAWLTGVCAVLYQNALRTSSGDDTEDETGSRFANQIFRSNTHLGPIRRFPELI
Method: Electrophysiology: C57Bl/6 sexually mature male mice (60–90 days old) were euthanized by inhalation of CO2 followed by cervical dislocation and sperm were isolated from the corpus epididymis by swim-out. Then the sperm suspension was collected and centrifuged (500×g, 6 min) twice to purify the sperm. HEPES-buffered saline (HS) was used for sperm swim-out and storage. It contained (in mM): 135 NaCl, 5 KCl, 1 MgSO4, 2 CaCl2, 20 HEPES, 5 glucose, 10 lactic acid, and 1 Na·pyruvate at pH 7.4. The sperm suspension was kept at room temperature (∼22 °C) for 4–6 h until recording. All animal husbandry and experimental procedures were approved by the Animal Studies Committee of the Washington University in St. Louis School of Medicine.
Voltage-clamp recordings were performed using an Axopatch 200B amplifier (Molecular Devices). Recordings were filtered at 5 kHz with the internal filter of the amplifier and digitized at 50 kHz using a Digidata 1550B digitizer (Molecular Devices). Recording pipettes were pulled from borosilicate glass with tip resistances of 3–8 MΩ after filling with pipette solution containing (in mM): 140 KMES, 1 EGTA, 10 HEPES, pH 7.4 with KOH. Bath solutions contained (in mM): 135 NaMES, 5 KMES, 2 MgCl2, and 10 HEPES, pH 7.4 with NaOH. Experiments were performed at room temperature (∼22 °C). Whole-cell currents were evoked from a holding potential of −60 mV in steps from −80 to +100 mV in 10 mV increments. Test compounds were prepared daily from a 10 mM stock solution (in DMSO).
For mouse sperm recordings, the pipettes were fire-polished with Microforge MF-830 (Narishige, Japan) to reach tip resistances of 8–12 MΩ. The giga-ohm (GΩ) seals were formed between the glass micropipette and the sperm cytoplasmic droplet in HS solution. Break-in to whole-cell mode was achieved by applying short (1–5 ms) voltage pulses of 488–888 mV.
Data were analyzed with a pClamp 10.6 (Molecular Devices). VU6047606 and VU6032735 inhibition dose–response relationships were fit by the Hill equation in OriginPro 7.5 (OriginLab Corporation): R=1/1+(C/IC50)^n+Ioff , in which R is fractional unblock, C is compound concentration, IC50 is the half inhibition concentration, n is the Hill coefficient, and I off is an offset item for leak current. Error bars in the figures represent the SDs. Each data point is averaged from at least 5 measurements. Curve-fitting results are reported as the fitted values with standard error, which was estimated by OriginPro according to the Error Propagation formula.

[5] = biological target: CYP2C9 (Homo sapiens, UniProt P11712); assay: CYP450 inhibition; format: in vitro ADME; conditions: read-out: CYP450 Inhibition, 2C9
CYP2C9, sequence (P11712 whole entry, species assumed): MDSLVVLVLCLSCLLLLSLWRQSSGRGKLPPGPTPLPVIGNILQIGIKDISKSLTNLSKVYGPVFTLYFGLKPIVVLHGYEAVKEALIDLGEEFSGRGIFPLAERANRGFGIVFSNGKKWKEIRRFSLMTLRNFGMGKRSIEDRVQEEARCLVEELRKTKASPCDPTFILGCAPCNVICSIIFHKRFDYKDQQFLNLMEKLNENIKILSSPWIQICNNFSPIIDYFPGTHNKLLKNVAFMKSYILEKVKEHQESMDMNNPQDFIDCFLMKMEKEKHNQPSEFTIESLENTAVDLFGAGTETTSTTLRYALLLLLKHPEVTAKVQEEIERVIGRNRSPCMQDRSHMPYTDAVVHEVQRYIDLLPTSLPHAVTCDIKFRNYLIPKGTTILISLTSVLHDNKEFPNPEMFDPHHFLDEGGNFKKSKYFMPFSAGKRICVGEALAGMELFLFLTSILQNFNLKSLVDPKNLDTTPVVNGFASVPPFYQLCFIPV

[6] = biological target: Nicotinic Acetylcholine α1, Bungarotoxin (Homo sapiens, UniProt P02708+P07510+Q07001); assay: biochemical; format: binding; conditions: read-out: % inhibition at 10 μM
[7] = biological target: hERG potassium channel (Homo sapiens, UniProt Q12809); assay: LeadProfilingScreen radioligand binding; conditions: probe [3H]Dofetilide
hERG potassium channel, sequence (Q12809 whole entry): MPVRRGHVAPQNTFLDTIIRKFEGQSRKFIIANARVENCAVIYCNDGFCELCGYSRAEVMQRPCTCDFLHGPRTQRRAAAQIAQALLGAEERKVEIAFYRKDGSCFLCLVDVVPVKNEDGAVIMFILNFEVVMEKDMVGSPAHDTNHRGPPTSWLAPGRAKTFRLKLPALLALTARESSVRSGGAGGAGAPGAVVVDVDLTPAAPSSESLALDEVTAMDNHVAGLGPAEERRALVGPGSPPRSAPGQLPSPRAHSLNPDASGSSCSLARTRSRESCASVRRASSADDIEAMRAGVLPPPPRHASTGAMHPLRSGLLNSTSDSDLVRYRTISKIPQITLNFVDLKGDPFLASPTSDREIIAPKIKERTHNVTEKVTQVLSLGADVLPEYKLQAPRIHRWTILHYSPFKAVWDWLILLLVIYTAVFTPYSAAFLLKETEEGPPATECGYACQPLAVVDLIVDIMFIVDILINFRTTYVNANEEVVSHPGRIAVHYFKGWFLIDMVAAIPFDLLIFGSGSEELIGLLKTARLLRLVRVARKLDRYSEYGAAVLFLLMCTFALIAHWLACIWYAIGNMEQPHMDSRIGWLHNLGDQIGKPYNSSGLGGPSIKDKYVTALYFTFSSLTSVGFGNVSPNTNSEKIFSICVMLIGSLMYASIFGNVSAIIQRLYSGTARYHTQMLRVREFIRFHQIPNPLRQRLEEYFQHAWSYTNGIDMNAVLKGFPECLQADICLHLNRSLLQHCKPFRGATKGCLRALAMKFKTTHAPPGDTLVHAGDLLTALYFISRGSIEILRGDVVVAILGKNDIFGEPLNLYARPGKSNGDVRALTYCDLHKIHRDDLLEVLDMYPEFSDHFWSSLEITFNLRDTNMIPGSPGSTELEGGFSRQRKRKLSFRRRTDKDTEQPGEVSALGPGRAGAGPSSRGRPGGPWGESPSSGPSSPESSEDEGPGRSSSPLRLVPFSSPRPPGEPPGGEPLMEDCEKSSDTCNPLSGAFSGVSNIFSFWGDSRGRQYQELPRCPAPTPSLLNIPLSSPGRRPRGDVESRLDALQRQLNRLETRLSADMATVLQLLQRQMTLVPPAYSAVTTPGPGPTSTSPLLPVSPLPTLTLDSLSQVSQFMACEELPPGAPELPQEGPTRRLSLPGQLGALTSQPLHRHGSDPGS

[8] = biological target: Transporter, Dopamine (DAT) (Homo sapiens, UniProt Q01959); assay: LeadProfilingScreen radioligand binding
Transporter, Dopamine (DAT), sequence (Q01959 whole entry): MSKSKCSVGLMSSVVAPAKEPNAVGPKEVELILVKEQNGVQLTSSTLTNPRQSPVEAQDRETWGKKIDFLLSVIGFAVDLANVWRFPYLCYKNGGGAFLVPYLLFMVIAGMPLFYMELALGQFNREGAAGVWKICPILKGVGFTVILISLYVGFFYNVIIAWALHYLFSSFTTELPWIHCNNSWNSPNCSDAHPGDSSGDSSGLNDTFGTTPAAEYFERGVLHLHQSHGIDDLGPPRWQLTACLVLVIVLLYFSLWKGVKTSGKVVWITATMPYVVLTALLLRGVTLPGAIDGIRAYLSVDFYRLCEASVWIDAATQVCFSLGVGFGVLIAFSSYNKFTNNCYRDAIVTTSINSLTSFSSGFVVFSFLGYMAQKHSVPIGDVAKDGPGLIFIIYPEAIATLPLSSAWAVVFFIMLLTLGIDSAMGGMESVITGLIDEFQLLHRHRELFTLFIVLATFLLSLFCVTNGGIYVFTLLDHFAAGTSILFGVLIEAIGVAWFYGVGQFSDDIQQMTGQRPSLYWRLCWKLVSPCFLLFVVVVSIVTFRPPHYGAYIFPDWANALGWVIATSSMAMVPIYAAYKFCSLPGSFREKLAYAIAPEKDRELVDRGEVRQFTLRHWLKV

GABAB1A, sequence (Q9UBS5 15-961 limits assumed): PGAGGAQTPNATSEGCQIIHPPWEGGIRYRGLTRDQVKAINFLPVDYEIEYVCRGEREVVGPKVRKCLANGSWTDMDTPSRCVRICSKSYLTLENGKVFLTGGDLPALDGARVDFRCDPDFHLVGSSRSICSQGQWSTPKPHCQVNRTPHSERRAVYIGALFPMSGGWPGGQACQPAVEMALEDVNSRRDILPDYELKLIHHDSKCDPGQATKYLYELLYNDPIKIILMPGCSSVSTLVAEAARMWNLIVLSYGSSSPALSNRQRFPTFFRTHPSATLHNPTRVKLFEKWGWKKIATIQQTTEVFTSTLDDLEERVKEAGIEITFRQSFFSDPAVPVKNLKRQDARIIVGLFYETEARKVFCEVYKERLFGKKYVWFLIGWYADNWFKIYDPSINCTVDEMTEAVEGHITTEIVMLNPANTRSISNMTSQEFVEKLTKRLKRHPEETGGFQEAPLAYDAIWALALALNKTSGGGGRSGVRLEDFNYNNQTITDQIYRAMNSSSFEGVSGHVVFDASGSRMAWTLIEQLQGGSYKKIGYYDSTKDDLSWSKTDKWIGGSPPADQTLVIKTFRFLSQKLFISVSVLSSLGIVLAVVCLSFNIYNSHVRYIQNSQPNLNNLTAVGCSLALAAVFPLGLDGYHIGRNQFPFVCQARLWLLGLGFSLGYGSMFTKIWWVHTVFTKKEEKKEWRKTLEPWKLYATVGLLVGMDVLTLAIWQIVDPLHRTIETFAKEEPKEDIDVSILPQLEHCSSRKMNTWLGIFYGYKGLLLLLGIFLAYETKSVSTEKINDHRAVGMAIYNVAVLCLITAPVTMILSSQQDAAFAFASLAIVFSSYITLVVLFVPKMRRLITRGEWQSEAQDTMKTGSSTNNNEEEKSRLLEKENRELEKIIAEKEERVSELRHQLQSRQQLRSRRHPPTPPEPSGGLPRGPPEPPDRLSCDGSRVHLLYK
GABAB1A, sequence (O75899 42-941 partner): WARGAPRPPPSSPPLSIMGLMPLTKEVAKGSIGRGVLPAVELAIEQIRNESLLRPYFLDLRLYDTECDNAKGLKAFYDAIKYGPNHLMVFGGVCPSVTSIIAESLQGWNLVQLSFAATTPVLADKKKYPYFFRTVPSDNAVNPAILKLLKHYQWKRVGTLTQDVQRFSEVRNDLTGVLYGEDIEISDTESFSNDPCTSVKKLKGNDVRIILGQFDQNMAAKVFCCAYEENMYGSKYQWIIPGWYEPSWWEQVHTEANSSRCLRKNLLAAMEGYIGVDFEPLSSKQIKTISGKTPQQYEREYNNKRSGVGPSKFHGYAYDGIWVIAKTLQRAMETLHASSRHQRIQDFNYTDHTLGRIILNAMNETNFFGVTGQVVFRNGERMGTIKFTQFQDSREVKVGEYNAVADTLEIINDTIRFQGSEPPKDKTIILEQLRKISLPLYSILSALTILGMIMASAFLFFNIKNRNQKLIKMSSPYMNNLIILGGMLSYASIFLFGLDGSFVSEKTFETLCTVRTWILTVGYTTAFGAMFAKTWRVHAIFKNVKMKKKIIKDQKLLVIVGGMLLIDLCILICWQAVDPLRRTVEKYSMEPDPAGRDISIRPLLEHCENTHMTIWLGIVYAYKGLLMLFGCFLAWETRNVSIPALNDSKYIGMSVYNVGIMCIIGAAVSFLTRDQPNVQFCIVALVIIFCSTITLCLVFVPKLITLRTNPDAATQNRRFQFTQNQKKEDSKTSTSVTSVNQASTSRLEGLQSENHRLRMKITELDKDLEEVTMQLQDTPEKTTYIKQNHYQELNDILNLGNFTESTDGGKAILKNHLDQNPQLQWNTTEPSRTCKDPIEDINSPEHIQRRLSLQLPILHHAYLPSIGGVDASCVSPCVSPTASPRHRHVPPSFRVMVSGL
Interleukin IL-1 R1, sequence (P14778 18-569): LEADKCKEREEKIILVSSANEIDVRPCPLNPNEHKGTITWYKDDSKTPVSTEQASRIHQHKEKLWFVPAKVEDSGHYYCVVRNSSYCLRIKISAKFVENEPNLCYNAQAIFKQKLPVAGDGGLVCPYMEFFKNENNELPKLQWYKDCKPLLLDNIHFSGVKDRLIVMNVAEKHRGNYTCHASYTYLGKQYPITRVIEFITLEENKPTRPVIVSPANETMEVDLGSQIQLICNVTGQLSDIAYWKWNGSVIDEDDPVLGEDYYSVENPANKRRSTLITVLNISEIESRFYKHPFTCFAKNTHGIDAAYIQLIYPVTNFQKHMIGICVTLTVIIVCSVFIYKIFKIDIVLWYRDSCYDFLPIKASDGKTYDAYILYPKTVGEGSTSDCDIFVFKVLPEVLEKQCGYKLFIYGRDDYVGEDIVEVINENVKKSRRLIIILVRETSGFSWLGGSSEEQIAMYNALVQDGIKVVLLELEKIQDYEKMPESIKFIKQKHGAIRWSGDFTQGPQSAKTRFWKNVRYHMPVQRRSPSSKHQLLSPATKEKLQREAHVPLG

Cc1cc(Cl)cc2sc(O[C@H]3CCN(C(=O)CCCS(=O)(=O)c4cccc(Br)c4)C[C@H]3F)nc12 [VU6047606]
inhibition at 10 µM [1]: 12%
inhibition at 10 µM [2]: 1%
inhibition at 10 µM [3]: 5%
Hill coefficient [4]: 1.02 ± 0.12
IC50 ([4]; currents at +100 mV, read-out: mSLO3 IC50 (mouse sperm KSper currents)): 1.47 µM
IC50 [5]: > 30 µM
inhibition at 10 µM [6]: 5%
inhibition at 10 µM [7]: 72%
inhibition at 10 µM [8]: 18%

O=C(c1ccc(OCc2ccc(OC(F)(F)F)cc2)cc1)N1CCN(c2ccc(C(F)(F)F)cn2)CC1 [VU6032735]
inhibition at 10 µM [1]: 31%
inhibition at 10 µM [2]: -7%
inhibition at 10 µM [3]: 5%
fold more potent than VU6047606 on mouse SLO3 currents ([4]; mouse sperm): ~1.6 fold
Hill coefficient [4]: 0.78 ± 0.07
IC50 ([4]; read-out: mSLO3 IC50 (mouse sperm)): 0.91 µM
IC50 [5]: > 30 µM
inhibition at 10 µM [6]: 2%
inhibition at 10 µM [7]: 9%
inhibition at 10 µM [8]: 26%

— article PMC12441834, “Highly Potent and Subtype-Selective Sperm-Specific Potassium Channel SLO3 Inhibitors Display High Tissue Exposure in the Murine Female Reproductive Tract” (ACS Pharmacology & Translational Science, 2025)
